Assay results: US7803557B2, “Methods for identification of eicosapentaenoic acid analogs using anti-inflammatory receptors” (The Brigham and Women's Hospital, Inc., priority 2003, dated 2010)
Where two headings read alike, the source gives them in different places.

What was measured:
[1] = system: leukocyte infiltration in zymosan-induced peritonitis; assay: Zymosan induced peritonitis (leukocyte infiltration); format: in vivo, mouse; conditions: for inhibition of leukocyte recruitment: 100 ng/mouse intravenously, 2 h
Method: For peritonitis, 100 ng/mouse of Resolvin E1 or related structures was injected into tail vein and followed by 1 ml zymosan A (1 mg/ml) into the peritoneum. Peritoneal lavages were collected at 2 h and cells were enumerated.
18R-HEPE (100 ng), Resolvin E1 (100 ng), or Indomethacin (100 ng) was injected intravenously into mouse tails followed by zymosan A into the peritoneum. Mice were sacrificed, and peritoneal lavages were collected (2 h) and cells enumerated (n=3).

[2] = target: T1, Reso ER1 (Homo sapiens, UniProt Q99788); assay: NF-kB reporter gene assay, HEK293 cells transfected with Reso ER1; format: cell-based; set-up: expressed in transfected cells; host or cells: HEK293, transient transfection with pcDNA3-Reso ER1
T1 sequence (Q99788 1-373): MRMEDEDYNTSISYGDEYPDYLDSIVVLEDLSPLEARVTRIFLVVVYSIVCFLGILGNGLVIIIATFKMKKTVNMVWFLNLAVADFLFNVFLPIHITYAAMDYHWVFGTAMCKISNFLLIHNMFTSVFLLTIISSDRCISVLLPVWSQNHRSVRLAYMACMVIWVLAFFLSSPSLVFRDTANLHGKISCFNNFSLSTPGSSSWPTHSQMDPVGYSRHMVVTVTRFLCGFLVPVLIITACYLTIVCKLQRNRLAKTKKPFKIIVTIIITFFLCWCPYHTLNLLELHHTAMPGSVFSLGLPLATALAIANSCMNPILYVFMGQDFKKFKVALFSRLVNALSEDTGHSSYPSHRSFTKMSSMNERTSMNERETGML
Method: HEK293 cells (1.0′10^5 cells) were transiently transfected with 50 ng pNF-kB-luciferase (Stratagene), 500 ng of either pcDNA3 or pcDNA3-GPCRs and the internal standard pRL-TK (Promega) using Superfect transfection reagent (Qiagen). After 24 h, cells were exposed to the test compounds for 30 min, stimulated with recombinant human TNF-a (1.0 ng/ml, BD Pharmingen) for 5 h. Luciferase activity was measured by the Dual-Luciferase reporter assay system (Promega). Basal induction of luciferase activity by TNF-a was >150-fold in this system. Efficient expression of GPCRs to the cell surface was observed by immunostaining using HA-tagged GPCR constructs. For PTX treatment, HEK293 cells were treated with PTX (200 ng/ml) for 24 h before stimulation.
(§1) FIG. 4d illustrate effects of PTX on Resolvin E1 induced activation and NF-kB inhibition. In—(a) HEK-hReso ER1 cells were incubated with or without PTX (200 ng/ml) for 24 h at 37 C and ERK activation was monitored by addition of Resolvin E1 (100 nM) for 5 min. In (b) HEK293 cells were transiently transfected with pcDNA-hReso ER1, pNF-kB-luciferase and pRL-TK. After 24 h with or without PTX (200 ng/ml), cells were exposed to Resolvin E1 (50 nM) for 30 min, stimulated with TNF-a (1.0 ng/ml) for 5 h, and luciferase activity was measured.

[3] = system: peripheral blood monocytes; assay: MAP kinase (ERK) activation in peripheral blood monocytes; format: cell-based, human; conditions: 100 nM
Method: (§2) MAP kinase activation in monocytes and HEK293 cells after treatment with 100 nM of each compound was determined. After incubations, cells were lysed in cold lysis buffer (50 mM Tris-HCl, pH 8.0, 150 mM NaCl, 0.5 mM EDTA, 1.0% NP-40, 0.5% sodium deoxycolate, 10 mM NaF, 10 mM sodium pyrophosphate) containing protease inhibitor cocktail (Sigma). […] of protein was separated on SDS-PAGE and immunoblot was performed using anti-phospho-p44/42 MAP kinase (Cell Signaling) and anti-ERK (Santa Cruz) antibodies. For PTX treatment, HEK-Reso ER1 cells were incubated with or without PTX (200 ng/ml) for 24 h at 37° C. and ERK activation was monitored by addition of Resolvin E1 (100 nM) for 5 min.

[4] = target: recombinant LTB4 receptor BLT 1 (Homo sapiens, UniProt Q15722); conditions: higher concentrations; reference (7); cited from earlier work
Chain of recombinant LTB4 receptor BLT 1 (Q15722 whole entry): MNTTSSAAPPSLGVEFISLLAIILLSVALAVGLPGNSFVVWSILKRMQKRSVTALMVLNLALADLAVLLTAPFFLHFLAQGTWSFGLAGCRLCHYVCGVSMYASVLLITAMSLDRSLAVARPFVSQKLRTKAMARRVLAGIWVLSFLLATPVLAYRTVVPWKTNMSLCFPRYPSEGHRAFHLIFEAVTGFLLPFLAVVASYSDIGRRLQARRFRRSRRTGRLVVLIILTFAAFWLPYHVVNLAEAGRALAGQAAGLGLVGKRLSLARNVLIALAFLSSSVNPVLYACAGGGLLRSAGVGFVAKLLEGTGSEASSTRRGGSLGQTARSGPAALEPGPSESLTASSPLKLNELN

[5] = system: mouse splenic CD11c+ DCs; assay: IL-12p40 production by isolated splenic CD11c+ DCs stimulated with STAg; format: cell-based
Method: (§3) Experiments were performed essentially as in (19). STAg was prepared from sonicated T. gondii (RH strain) tachzoytes. For isolated DC experiments, 70-85% CD11c positive DCs were isolated from spleen. CD11c+DC suspensions (1.0×10^6 cells/ml) were spread into 96-well plates and incubated for 24 h with Resolvin E1 before the addition of STAg ([…]). After overnight culture, supernatants were collected and IL-12p40 was measured with a sandwich ELISA. For in vivo treatments, C57BL/6 mice (n=3 per group) were injected intravenously with 100 ng Resolvin E1. After 18 h the animals were challenged intraperitoneally with PBS (0.2 ml/mouse), STAg (5 mg/ml) and sacrificed after an additional 6 h. CD11c+DCs were isolated from spleen and IL12-p40 secretion was measured at 24 h. For DC migration, Splenic frozen section from mice treated as above but given […] of Resolvin E1 or vehicle were stained for CD11c and counterstained with hematoxylin.
Chemically synthesized siRNA for mouse Reso ER1 (5′-[…]dTdT-3′) and Non-specific control IX siRNA (5′-[…]-3′) were from Dharmacon Research. Spleen cells (1.0×10^6 cells/ml) were transfected using Chariot (Active Motif) following manufacturers' instructions. Briefly, siRNA was mixed with Chariot transfection reagent and incubated at room temperature for 30 minutes. […]

[6] = system: splenic CD11c+ DCs; assay: In vivo activation of spleen dendritic cells with pathogen extract (STAg); set-up: species or system mouse; DC migration into T cell areas of the spleen: dose or concentration left out as unconfirmed; conditions: STAg challenge
Method: as §3

[7] = system: mock-transfected HEK293 cells; assay: MAP kinase (ERK) activation in mock-transfected HEK293 cells; format: cell-based, human; conditions: 100 nM
Method: as §2

[8] = system: human peripheral blood monocytes; assay: Calcium mobilization in human peripheral blood monocytes; format: cell-based
[9] = target: T1, Reso ER1; assay: [35S]-GTPgS binding assay, membranes expressing Reso ER1; format: biochemical; set-up: expressed in transfected cells; conditions: isolated membranes from cells expressing Reso ER1; concentration-dependent
Method: HEK293 cells stably expressing human Reso ER1 were homogenized in ice-cold TED buffer (20 mM Tris-HCl pH7.5/1 mM EDTA/5 mM MgCl2/1 mM DTT). Membrane fraction ([…]) was incubated in […] of GTP-binding buffer (50 mM Hepes, pH7.5/100 mM NaCl/1 mM EDTA/5 mM MgCl2/1 mM DTT) containing 0.1 nM [^35S]-GTPgS (>1000 Ci/mmol, Amersham) and […] for 30 min at 30° C. The bound and unbound [35S]-GTPgS was separated by rapid filtration through GF/C filters, and counted by liquid scintillation. Nonspecific binding was determined in the presence of […] unlabeled GTPgS. Basal [^35S]-GTP-gS binding was 81.6+1.5 cpm/mg protein.

[10] = system: HEK-Reso ER1 stable transformants; assay: Calcium mobilization in HEK-Reso ER1 stable transformants; format: cell-based, human
[11] = system: leukocyte infiltration in TNF-a induced dorsal air pouch; assay: Murine dorsal air-pouch model (TNF-a induced leukocyte infiltration); format: in vivo, mouse; set-up: inhibition of leukocyte recruitment: dose or concentration left out as unconfirmed
Method: Dorsal air pouches were raised on male FvB mice (6-8 wk) by injecting 3 ml of sterile air subcutaneously on days 0 and 3. On day 6, 100 ng/mouse of compounds were injected into tail vein. Inflammation in the air-pouch was induced by intrapouch injection of mouse recombinant TNF-a (100 ng/pouch), and pouch lavages were collected at 4 h and cells were enumerated.

[12] = LC-MS/MS analysis of Resolvin E1 in human plasma; format: in vivo; conditions: oral, healthy human volunteers given EPA and aspirin, 6 donors
Method: Human plasma samples were collected at 4 hours after oral administration of fish oil supplement (Fish Oil Concentrate, Walgreens) containing EPA (1 g) and DHA (0.7 g) followed by aspirin (160 mg) at 3 h in six healthy volunteers. Plasma samples were extracted by C18 solid phase extraction with d4-LTB4 (Cascade) as internal standard for LC-MS/MS analysis (7) using a Finnigan LCQ liquid chlomatography ion trap tandem mass spectrometer equipped with a LUNA C18-2 (100×2 mm×[…]) column and UV diode array detector using mobile phase (methanol:water:acetate at 65:35:0.01) from 0 to 8 min, ramped to methanol 8 to 30 min, with a 0.2 ml/min flow rate.

[13] = system: HEK293-Reso ER1 cells; assay: MAP kinase (ERK) activation in HEK293-Reso ER1 cells; format: cell-based, human
Method: as §2, §1

[14] = system: leukocyte infiltration in TNF-a induced dorsal air pouch; conditions: 1.0 mg/mouse, reference (9); cited from earlier work

For `CCC(O)C=CC=CCC(O)C=CC=CC=CC(O)CCCC(=O)O` (single isomer, unassigned) [6-trans,14-trans isomer], the “reduced potency for reducing leukocyte infiltration” value ([1]; versus Resolvin E1) was roughly 70%.

In the case of `CC[C@H](O)/C=C/C=C\C[C@@H](O)/C=C/C=C/C=C\[C@@H](O)CCCC(=O)O` (single isomer, unassigned) [18S isomer], the “activity compared with native Resolvin E1 containing 18R” value [1] is reported as “essentially equivalent activity”.

In the case of `CC[C@@H](O)/C=C/C=C\C[C@@H](O)/C=C/C=C/C=C\[C@@H](O)CCCC(=O)O` [Resolvin E1, 5S,12R,18R-trihydroxy-6Z,8E,10E,14Z,16E-eicosapentaenoic acid], the EC50 ([2]; read-out: EC50, inhibition of TNF-a induced NF-kB activation) is given as roughly 1 nM, the “phosphorylation of ERK MAP kinase” value [3] is given as “increased phosphoryation” and the “concentration at which it interacts with recombinant BLT1” value [4] is given as roughly 0.5 mM. For the same compound, the “IL-12p40 production by STAg” value ([5]; isolated mouse splenic CD11c+ DCs, within the nanomolar range) was “markedly inhibited”, the “action in regulating IL-12 production from DCs after siRNA specific for mouse Reso ER1” value ([5]; spleen cells transfected with siRNA, STAg stimulation) was “eliminated” and the “inhibition of leukocyte recruitment” value [1] was 50-60%. For the same compound, the “IL-12 production in vivo” value ([6]; 100 ng intravenously, IL-12p40 from splenic CD11c+ DCs) was “blocked IL-12 production”, the “DC migration into T cell areas of the spleen” value ([6]; Resolvin E1, CD11c staining) was “blocked” and the “phosphorylation of ERK MAP kinase” value [7] was “not in mock-transfected HEK293 cells”. For the same compound, the “inhibition of calcium mobilization by 100 nM LTB4” value ([8]; 100 nM, data not shown, cell type not restated) was “did not inhibit calcium mobilization”, the calcium mobilization ([8]; human peripheral blood monocytes) was “did not evoke a calcium mobilization” and the “specific [35S]-GTPgS binding” value [9] was “increased selectively”. For the same compound, the calcium mobilization [10] was “did not evoke a calcium mobilization”, the “inhibition of leukocyte infiltration” value ([11]; 100 ng/mouse, tail vein, TNF-a induced dorsal air pouch) was 50-70% and the concentration at 4 h [12] was 0.1 to 0.4 ng/mL. For the same compound, the “phosphorylation of ERK MAP kinase” value ([13]; 100 nM, HEK293-Reso ER1 cells) was “increased phosphoryation” and the “Resolvin E1 dependent ERK activation after pertussis toxin” value ([13]; PTX 200 ng/ml 24 h, Resolvin E1 100 nM, 5 min) was “abolished”.

For `CC(=O)Oc1ccccc1C(=O)O` [aspirin, reference compound], the inhibition at 1000 µM ([2]; HEK293, 1 mM, read-out: non-receptor dependent inhibition of NF-kB) is listed as 26.2% and the “inhibition of leukocyte recruitment” value [14] is listed as 70%.

With `C[C@@H]1C[C@H]2[C@@H]3CCC4=CC(=O)C=C[C@]4(C)[C@@]3(F)[C@@H](O)C[C@]2(C)[C@@]1(O)C(=O)CO` [dexamethasone, reference compound] the “inhibition of leukocyte recruitment” value ([11]; local administration, dorsal air pouch) was 60%.

For `COc1ccc2c(c1)c(CC(=O)O)c(C)n2C(=O)c1ccc(Cl)cc1` [indomethacin, reference compound], the “inhibition of leukocyte recruitment” value [1] was 25%.
